Results on nine molecules are retold here after US20110251085A1, “IN VITRO METHOD TO DETERMINE WHETHER A DRUG CANDIDATE ACTIVE AGAINST A TARGET PROTEIN IS ACTIVE AGAINST A VARIANT OF SAID PROTEIN” (VIVALIS, priority 2008, published 2011).

Entries after “also recorded” stand apart in the source; their conditions may differ. Read-outs that look alike come from different tables or passages of the source.

One assay has as its target T1, native NS5BΔ21 (Hepatitis C virus genotype 1b, UniProt P26662).
T1 construct: expressed in transfected cells; host or cells: Hela cells, plasmid pVVS478
Kind of assay: 3D-Screen-NS5B platform, luciferase reporter, Hela cells, native NS5BΔ21. The settings on record: HeLa, 24 hours; for inhibition at 10 µM: 10 uM final concentration, 3D-sensor N21C272, versus DMSO. Type of assay: cell-based, HCV genotype 1b. As for the experimental part:
Transfections were performed for 2 hours in 100 mm dishes in 2 to 4 million cells with 5 to 20 ug of total DNA complexed to jetPEI (PolyPLus transfection, Illkirch, France) with a N/P ratio of 8 The optimal ratio between the plasmids encoding for the luciferase reporter, the target and the selected 3Dsensor was: 3 ug/1 ug/0.5 ug. Cells were dissociated and 25000 cells per well were seeded in 96 well culture treated plates (BD Biosciences, Erembodegem, Belgium).
Compound library's plates were thawed at room temperature. Drugs were handled by a Genesis workstation (Tecan, Lyon, France) and added to the cells at a 5 uM (in 0.5% DMSO) final concentration. Screening was performed by runs of twenty plates. Hits were identified by measurement of the luciferase activity.
Cell culture supernatant was discarded and 100 ul of Lysis buffer were added to each well. Following […] of vigorous shaking, the lysate was transferred to white opaque 96 well-plates and 100 ul of Luciferin buffer were added. Chemi-luminescence measurement was performed immediately using a Microlumat LB96 luminometer (Berthold, Thoiry, France) with 1 or 10 sec integration time.
Selected hits were synthesized and tested at concentrations varying between 0.01 uM and 100 uM final concentration so as to determine their IC50 on 3 independent experiments.
3D-sensors confirmed in yeast were further investigated in human cells. Among the reasons of choosing Hela cells figured their wide use, easiness of manipulation and capacity of replicating subgenomic HCV replicons (Zhu et al., 2003; Kato et al., 2005).
To validate whether drug's action on our system was stokiometric or not, Hela cells were transiently transfected with three expression plasmids encoding the reporter gene luciferase, the target protein and the conformation sensitive peptide N21C272. After incubation with increasing amounts of reference drugs cVVS-023476 or cVVS-023477, luciferase expression was measured.
On the technique in general: Reporter assays use an easily measured gene product as a stand-in for the process of interest.

Assay [1] deals with T2, native NS4A-NS3 full length protein (Hepatitis C virus genotype 1b, UniProt P26662). The assay is described as follows: 3D-Screen NS4A-NS3 full length mutant profiling platform, Huh7 cells, 3D-sensor VF-9A11, native. In kind it is cell-based, HCV genotype 1b. Set-up: the GSGS linker and the NS3 protease (residues 3-631); expressed in transfected cells; host or cells: Huh7 hepatoma cells. As for the experimental part: (§1) Hela cells (ATCC, Molsheim, France) were maintained in EMEM (Minimum Essential Medium Eagle with Earle's Balanced Salt solution without L-Glutamine; Biowhittaker/Cambrex, East Rutherford, N.J., USA) supplemented with 10% FBS (JRH), 2 mM Glutamine (Biowhittaker/Cambrex), 1% Non-essential Amino acids (Biowhittaker/Cambrex), 100 units/ml Penicillin and 100 ug/ml Streptomycin. Cells were kept in a humidified 5% CO2 atmosphere at 37° C. and dissociated using Trypsine-EDTA (1×) when reaching 80-90% confluence. Huh-7 hepatoma derived cells (Nakabayashi H et al, 1982) were maintained in half volume of DMEM (Dulbecco's […] Medium without L-Glutamine; Lonza, Basel, Switzerland) and half volume of Ham's F12 medium (Lonza, Basel, Switzerland) supplemented with 10% FBS (SAFC, USA), 1 mM Glutamine (Lonza, Basel, Switzerland), 0.5 mM Sodium pyruvate (Lonza, Basel, Switzerland), 100 units/ml Penicillin and 100 ug/ml Streptomycin. Cells were kept in a humidified 5% CO2 atmosphere at 37° C. and dissociated using Trypsine-EDTA (1×) when reaching 80-90% confluence. […]
(§2) Cell culture supernatant was discarded and 100 ul of Lysis buffer were added to each well. […] Chemi-luminescence measurement was performed immediately using a Microlumat LB96 luminometer (Berthold, Thoiry, France) with 1 or 10 sec integration time.

A further assay concerns the target T3, NS5BΔ21 (Hepatitis C virus genotype 1b, UniProt P26662).
T3 construct: lexA/truncated HCV polymerase lacking the C-terminal 21 amino-acids fusion protein as a bait; expressed in transfected cells; host or cells: Saccharomyces cerevisiae L40, plasmid pVVS468
Type of assay: cell-based, HCV genotype 1b. Particulars: selective medium lacking histidine, leucine and tryptophane, supplemented with ligand, X-Gal overlay.

In another assay the target is T4, native NS4A-NS3 protease (Hepatitis C virus genotype 1b, UniProt P26662, I1158V/V1140I).
T4 construct: the NS3 protease (residues 3-181); expressed in transfected cells; host or cells: Hela cells
Kind of assay: 3D-Screen NS4A-NS3 protease platform, luciferase reporter, Hela cells, native. Type of assay: cell-based, HCV genotype 1b. The settings on record: HeLa; 2 uM final concentration, 3D-sensor V7-62.

The target in assay [2] is T2, native NS4A-NS3 full length protein. The assay is described as follows: 3D-Screen NS4A-NS3 full length platform, luciferase reporter, Hela cells, native. In kind it is cell-based, HCV genotype 1b. Also on record: the GSGS linker and the NS3 protease (residues 3-631); expressed in transfected cells. Particulars: HeLa; 2 uM final concentration, 3D-sensor H5-34.
Experimental: (§3) Cell culture supernatant was discarded and 100 ul of Lysis buffer were added to each well. Following 10 nm of vigorous shaking, the lysate was transferred to white opaque 96 well-plates and 100 ul of Luciferin buffer were added. Chemi-luminescence measurement was performed immediately using a Microlumat LB96 luminometer (Berthold, Thoiry, France) with 1 or 10 sec integration time.
Assay [3] has as its target T5, NS4A-NS3 full length protein A156V (Hepatitis C virus genotype 1b, UniProt P26662, A1182V).
T5 construct: the GSGS linker and the NS3 protease (residues 3-631); expressed in transfected cells; host or cells: Huh7 hepatoma cells
Kind of assay: 3D-Screen NS4A-NS3 full length mutant profiling platform, Huh7 cells, A156V. Type of assay: cell-based, HCV genotype 1b. As for the experimental part:
as §1, §2

Another assay relates to protease. Particulars: described in Lamarre et al, 2003; cited from earlier work.
Assay [4] has as its target T6, NS4A-NS3 full length protein D168V (Hepatitis C virus genotype 1b, UniProt P26662, D1194V).
T6 construct: the GSGS linker and the NS3 protease (residues 3-631); expressed in transfected cells; host or cells: Huh7 hepatoma cells
Kind of assay: 3D-Screen NS4A-NS3 full length mutant profiling platform, Huh7 cells, D168V. Type of assay: cell-based, HCV genotype 1b. The protocol: as §1, §2

Another assay relates to ER. Kind of assay: Yeast two-hybrid spot test, control clone ER + 3D-sensor No 30-2. In kind it is cell-based. The text has this: (a) Isolation of peptides interacting with the NS5BΔ21 in the yeast two-hybrid-system. Yeast cells carrying the bait (NS5BΔ21-LexA) were transformed with the prey represented by a library of random peptides (in frame with the viral VP16 activation domain). Colonies growing on selective medium and staining blue allowed the isolation of individual peptides that would specifically interact with the polymerase. (b) Isolation of conformation sensitive peptides. The interacting peptides were then tested in presence of ligands known to induce conformational changes in the bait NS5B. The “3D-sensors” were thus identified as the ones whose binding to the target polymerase was prevented by known anti-NS5B. The corresponding colonies didn't show any expression of the selection or reporter gene. (c) Characterization of NS5BΔ21 “3D-sensors” in a spot test. Here were represented 2 selected yeast colonies: one carrying the ER and its specific peptide called No 30-2 isolated previously and used as a control, the other carrying the NS5BΔ21 and its specific peptide called N21C272. Both clones were spotted on selective medium lacking histidine, leucine and tryptophane, supplemented or not with polymerase ligands and overlayed with an X-Gal staining The NS5BΔ21+N21C272 clone grew on selective medium in the absence of any NS5B ligand and stained positive for LacZ. […]

Assay [5] has as its target single chain NS4A-NS3 full length D168V mutant fused to Gal4 DBD (yeast; hepatitis C virus genotype 1b), P26662. Kind of assay: cell-based or functional assay.
For assay [6], the target named is single chain NS4A-NS3 full length A156T mutant fused to Gal4 DBD (yeast; hepatitis C virus genotype 1b), P26662. The assay is described as follows: cell-based or functional assay.
The target of assay [7] is single chain NS4A-NS3 full length T54A mutant fused to Gal4 DBD (yeast; hepatitis C virus genotype 1b), P26662. Kind of assay: cell-based or functional assay.
Assay [8] has as its target single chain NS4A-NS3 full length protein (native) fused to the yeast Gal4 DBD (pVVS772) (yeast; hepatitis C virus genotype 1b), P26662. The assay is described as follows: cell-based or functional assay.
In assay [9] the target is single chain NS4A-NS3 full length R109K mutant fused to Gal4 DBD (yeast; hepatitis C virus genotype 1b), P26662. Kind of assay: cell-based or functional assay.
In assay [10] the target is single chain NS4A-NS3 full length A156V mutant fused to Gal4 DBD (pVVS783) (yeast; hepatitis C virus genotype 1b), P26662. The assay is described as follows: cell-based or functional assay.
Assay [11] has as its target single chain NS4A-NS3 full length A156S mutant fused to Gal4 DBD (yeast; hepatitis C virus genotype 1b), P26662. The assay is described as follows: cell-based or functional assay.
In assay [12] the target is NS5BΔ21 L30R mutant fused to Gal4 DBD (pVVS475) (yeast; hepatitis C virus genotype 1b), P26662. Kind of assay: cell-based or functional assay.
The target of assay [13] is NS5BΔ21 L30S mutant fused to Gal4 DBD (pVVS474) (yeast; hepatitis C virus genotype 1b), P26662. Kind of assay: cell-based or functional assay.
[14] abbreviates: Huh7, VF-9A11, listed as cVVS-23591.

The inhibition is the drop in the measured response relative to a control, in per cent.

Experimental for native NS4A-NS3 protease: as §3
3D-sensors confirmed in yeast were further investigated in Hela cells.

Take `NC(=O)c1ncn([C@@H]2O[C@H](CO)[C@@H](O)[C@H]2O)n1` [Ribavirin]: at native NS5BΔ21 (75 uM final concentration, 3D-sensor N21C272), the inhibition at 75 µM is 8.7%.
For the molecule “VFII-N4: NS3 full length 3D-sensor peptide VNAWAWGW (SEQ ID No 65) (NS3 full length peptide sensor VFII-N4)”, the “sensitivity of the 3D-sensor to Telaprevir and Ciluprevir” value in assay [1] is “as sensitive as the 3D-Sensor VF-9A11”.
Consider `O=C(O)P(=O)(O)O` [Foscarnet], for which, at NS5BΔ21, the “growth on selective medium and LacZ staining of the NS5BΔ21+N21C272 yeast clone” value is “had no effect; also recorded: didn't show any effect”. The inhibition at 10 µM against native NS5BΔ21 turned out to be 11.7%.
With `O=C(O)CP(=O)(O)O` [Phosphonoacetic acid], the “growth on selective medium and LacZ staining of the NS5BΔ21+N21C272 yeast clone” value is reported as “had no effect” at NS5BΔ21 and “didn't show any effect” on NS5BΔ21 (listed as PAA). In addition, at native NS5BΔ21, the inhibition at 10 µM was -2.2%.
For `CCC[C@H](NC(=O)[C@@H]1[C@H]2CCC[C@H]2CN1C(=O)[C@@H](NC(=O)[C@@H](NC(=O)c1cnccn1)C1CCCCC1)C(C)(C)C)C(=O)C(=O)NC1CC1` [cVVS-023518, 2-(2-{2-Cyclohexyl-2-[(pyrazine-2-carbonyl)-amino]-acetylamino}-3,3-dimethyl-butyryl)-octahydro-cyclopenta[c]pyrrole-1-carboxylic acid (1-cyclopropylaminooxalyl-butyl)-amide], the inhibition at 2 µM was found to be 90% at native NS4A-NS3 protease and 60% in assay [2].
Take `COc1ccc2c(O[C@@H]3C[C@H]4C(=O)N[C@]5(C(=O)O)C[C@H]5/C=C\CCCCC[C@H](NC(=O)OC5CCCC5)C(=O)N4C3)cc(-c3csc(NC(C)C)n3)nc2c1` [cVVS-023951, (1S,4R,6S,7Z,14S,18R)-14-cyclopentyloxycarbonylamino-18-[2-(2-isopropylamino-thiazol-4-yl)-7-methoxyquinolin-4-yloxy]-2,15-dioxo-3,16-diazatricyclo[14.3.0.04.6]nonadec-7-ene-4-carboxylic acid]: the “resistance profile: sensitivity of the platform to the compound's inhibition” value in assay [1] (native, Huh7, VF-9A11) is on record as “active”; in [3] (Huh7, VF-9A11) it was “high resistance”; in assay [3] (setting [14]), “resistance in the same range as what was previously reported”; in assay [4] (Huh7, VF-9A11), “high resistance”; in [4] (setting [14]) it was “resistance in the same range as what was previously reported”. Further, in the assay with protease, the “activity on the protease” value is recorded as “low nanomolar range”.
Take `C[C@]12CC[C@@H]3c4ccc(O)cc4CC[C@H]3[C@@H]1CC[C@@H]2O` [Estradiol]: in the assay with ER, the “sensitivity of the control clone (ER + 3D sensor No 30.2 interaction) to ligand” value is given as “active”.
Regarding GTQKEAVIYPCYVPW (modifications not checked) [3D-sensor VF-9A11 fused to the VP16 activation domain], the luciferase signal over background in assay [5], in assay [6], in assay [7], in [8], in assay [9] and in assay [10] was more than 3 throughout. Further, the luciferase signal over background in assay [11] is more than 3.
With DGCARCVASVQLYGD (modifications not checked) [3D-sensor N21C272 fused to the VP16 activation domain], the luciferase signal turned out to be 3100 RLU in [12] and 7640 RLU in [13].
